Reference: US7244718B2, “Water soluble prodrugs of hindered alcohols” (University of Kansas, priority 1998, dated 2007)

Assay: Stability of the isolated free acid on standing at room temperature
Assay type: physicochemical
Conditions: isolated free acid (oil)
Procedure: To a solution of o-phosphonooxymethylpropofol dibenzyl ester (115 mg, 0.245 mmol) in methanol (10 mL) was added palladium on carbon (10%, 20 mg). This mixture was stirred under an atmosphere of hydrogen (1 atm) for 1.5 hour.
To a solution of O-phosphonooxymethyl-alpha-tocopherol dibenzyl ester (88 mg, 0.12 mmol) in tetrahydrofuran (10 mL) was added palladium on carbon (10%, 15 mg). The mixture was stirred under an atmosphere of hydrogen (1 atm) for 10 minutes (the reaction was complete after 5 minutes as judged by TLC). The catalyst was removed by filtration through Celite, the filtrate was evaporated at reduced pressure, and then dried in vacuo.

| Structure (SMILES) | stability at room temperature |
| --- | --- |
| Cc1c(C)c2c(c(C)c1OCOP(=O)(O)O)CCC(C)(CCCC(C)CCCC(C)CCCC(C)C)O2 (stereo not drawn) [IIb, O-phosphonooxymethyl-alpha-tocopherol] | unstable at room temperature |
| CC(C)c1cccc(C(C)C)c1OCOP(=O)(O)O [Id, O-phosphonooxymethylpropofol] | unstable on standing at room temperature |
